Assays:
TYK2 = TYK2 (Homo sapiens, UniProt P29597); assay: radiometric KinaseProfiler kinase assay, […] ATP; assay type: biochemical
JAK1 = JAK1 (Homo sapiens, UniProt P23458); assay: radiometric KinaseProfiler kinase assay, […] ATP; assay type: biochemical
JAK3 [1] = target: T1, JAK3 (Homo sapiens, UniProt P52333); assay: radiometric KinaseProfiler assay with ATP titration (Ki; IC50 […]); also JAK3 immunoprecipitate kinase assay; assay type: biochemical
T1 sequence (P52333 1-1124): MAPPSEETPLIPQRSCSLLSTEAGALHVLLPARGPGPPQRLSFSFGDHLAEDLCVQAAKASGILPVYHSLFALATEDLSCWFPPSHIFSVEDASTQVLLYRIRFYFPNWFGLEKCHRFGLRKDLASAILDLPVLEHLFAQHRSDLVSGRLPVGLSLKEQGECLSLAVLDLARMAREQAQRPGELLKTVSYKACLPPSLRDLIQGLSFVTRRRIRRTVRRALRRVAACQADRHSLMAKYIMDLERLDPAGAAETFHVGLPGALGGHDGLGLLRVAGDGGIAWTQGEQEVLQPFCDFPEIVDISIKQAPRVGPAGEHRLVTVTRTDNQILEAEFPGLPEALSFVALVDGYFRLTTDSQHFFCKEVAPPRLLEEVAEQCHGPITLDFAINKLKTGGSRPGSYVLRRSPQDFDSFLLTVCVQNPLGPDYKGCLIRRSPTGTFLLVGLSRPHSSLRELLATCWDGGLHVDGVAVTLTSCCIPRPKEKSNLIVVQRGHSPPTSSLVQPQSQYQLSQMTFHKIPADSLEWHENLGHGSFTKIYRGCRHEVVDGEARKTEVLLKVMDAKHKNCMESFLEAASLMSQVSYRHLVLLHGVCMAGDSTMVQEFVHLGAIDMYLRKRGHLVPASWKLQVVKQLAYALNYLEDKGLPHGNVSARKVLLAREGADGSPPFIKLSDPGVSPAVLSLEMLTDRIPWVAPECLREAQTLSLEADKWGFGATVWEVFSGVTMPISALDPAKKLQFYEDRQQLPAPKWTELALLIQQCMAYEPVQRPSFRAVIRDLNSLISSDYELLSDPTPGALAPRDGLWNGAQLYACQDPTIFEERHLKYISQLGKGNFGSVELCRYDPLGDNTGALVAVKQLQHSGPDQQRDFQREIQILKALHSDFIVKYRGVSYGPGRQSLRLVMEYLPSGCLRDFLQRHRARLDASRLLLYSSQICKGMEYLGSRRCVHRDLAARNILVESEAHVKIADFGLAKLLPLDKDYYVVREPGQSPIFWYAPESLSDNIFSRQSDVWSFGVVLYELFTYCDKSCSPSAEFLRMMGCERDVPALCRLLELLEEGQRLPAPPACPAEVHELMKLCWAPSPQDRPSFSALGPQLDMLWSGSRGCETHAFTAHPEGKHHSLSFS

JAK2 = JAK2 (Homo sapiens, UniProt O60674); assay: radiometric KinaseProfiler kinase assay, […] ATP; assay type: biochemical
JAK3 [2] = target: T1, JAK3
JAK3 [3] = target: T1, JAK3; assay: KinaseProfiler kinase assay, positive control; assay type: biochemical

Sequence of JAK1 (P23458 whole entry): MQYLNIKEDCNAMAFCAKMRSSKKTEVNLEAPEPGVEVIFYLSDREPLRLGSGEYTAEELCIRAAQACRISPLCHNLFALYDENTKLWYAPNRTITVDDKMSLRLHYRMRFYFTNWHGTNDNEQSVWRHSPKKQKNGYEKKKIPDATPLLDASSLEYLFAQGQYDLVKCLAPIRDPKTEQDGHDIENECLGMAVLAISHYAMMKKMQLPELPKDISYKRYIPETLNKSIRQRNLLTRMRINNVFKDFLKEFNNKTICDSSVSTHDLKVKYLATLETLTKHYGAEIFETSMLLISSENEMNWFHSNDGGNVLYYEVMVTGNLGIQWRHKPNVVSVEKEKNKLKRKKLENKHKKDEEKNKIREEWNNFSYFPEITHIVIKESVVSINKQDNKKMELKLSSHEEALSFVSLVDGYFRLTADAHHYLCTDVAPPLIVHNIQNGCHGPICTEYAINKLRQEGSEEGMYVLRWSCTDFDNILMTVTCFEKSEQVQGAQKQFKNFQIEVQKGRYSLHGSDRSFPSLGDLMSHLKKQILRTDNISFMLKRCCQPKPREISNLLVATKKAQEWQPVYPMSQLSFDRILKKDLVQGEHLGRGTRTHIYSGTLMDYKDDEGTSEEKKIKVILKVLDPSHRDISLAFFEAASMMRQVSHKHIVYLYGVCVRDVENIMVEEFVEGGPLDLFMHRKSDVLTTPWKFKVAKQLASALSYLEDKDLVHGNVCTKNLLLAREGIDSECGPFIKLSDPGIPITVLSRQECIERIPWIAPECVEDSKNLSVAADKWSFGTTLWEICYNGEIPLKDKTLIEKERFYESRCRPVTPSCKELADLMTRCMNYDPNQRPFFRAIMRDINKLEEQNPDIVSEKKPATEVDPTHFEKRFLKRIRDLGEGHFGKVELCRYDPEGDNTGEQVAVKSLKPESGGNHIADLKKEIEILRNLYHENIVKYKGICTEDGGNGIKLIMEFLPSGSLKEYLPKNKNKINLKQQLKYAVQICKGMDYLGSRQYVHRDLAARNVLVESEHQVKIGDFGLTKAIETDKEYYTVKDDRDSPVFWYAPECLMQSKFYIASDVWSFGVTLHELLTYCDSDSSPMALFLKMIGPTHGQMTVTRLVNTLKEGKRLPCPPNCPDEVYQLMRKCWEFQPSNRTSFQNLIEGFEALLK
Sequence of TYK2 (P29597 whole entry): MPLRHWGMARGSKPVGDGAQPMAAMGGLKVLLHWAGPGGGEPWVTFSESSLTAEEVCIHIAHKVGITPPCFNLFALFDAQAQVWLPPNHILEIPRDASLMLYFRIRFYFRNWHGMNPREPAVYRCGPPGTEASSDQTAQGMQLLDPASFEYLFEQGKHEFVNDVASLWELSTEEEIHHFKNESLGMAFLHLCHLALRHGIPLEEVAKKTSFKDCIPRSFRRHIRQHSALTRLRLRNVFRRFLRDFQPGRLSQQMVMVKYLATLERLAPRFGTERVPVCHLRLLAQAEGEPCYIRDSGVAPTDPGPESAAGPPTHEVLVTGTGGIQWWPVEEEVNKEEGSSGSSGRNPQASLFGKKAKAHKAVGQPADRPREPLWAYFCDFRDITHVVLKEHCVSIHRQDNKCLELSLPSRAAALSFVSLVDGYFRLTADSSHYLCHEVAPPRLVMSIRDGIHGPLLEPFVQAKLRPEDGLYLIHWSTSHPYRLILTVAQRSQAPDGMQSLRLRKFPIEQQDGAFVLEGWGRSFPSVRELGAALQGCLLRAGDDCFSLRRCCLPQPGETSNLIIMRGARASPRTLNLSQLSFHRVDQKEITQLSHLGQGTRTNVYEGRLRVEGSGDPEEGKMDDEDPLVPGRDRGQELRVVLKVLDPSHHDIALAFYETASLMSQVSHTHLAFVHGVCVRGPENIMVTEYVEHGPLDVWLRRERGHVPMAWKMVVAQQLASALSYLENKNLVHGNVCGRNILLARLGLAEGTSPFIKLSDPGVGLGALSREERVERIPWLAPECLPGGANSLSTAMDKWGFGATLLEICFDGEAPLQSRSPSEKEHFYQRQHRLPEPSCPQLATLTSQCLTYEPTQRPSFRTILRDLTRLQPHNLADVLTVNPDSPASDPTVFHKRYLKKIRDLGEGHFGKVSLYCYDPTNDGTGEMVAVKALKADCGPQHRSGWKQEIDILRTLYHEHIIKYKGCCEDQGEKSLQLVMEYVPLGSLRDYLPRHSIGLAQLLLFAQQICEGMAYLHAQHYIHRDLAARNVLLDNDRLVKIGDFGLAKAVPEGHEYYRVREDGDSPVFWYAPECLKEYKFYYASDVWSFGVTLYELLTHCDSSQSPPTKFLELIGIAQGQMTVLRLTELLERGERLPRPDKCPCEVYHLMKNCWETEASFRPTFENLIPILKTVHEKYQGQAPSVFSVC
Sequence of JAK2 (O60674 whole entry): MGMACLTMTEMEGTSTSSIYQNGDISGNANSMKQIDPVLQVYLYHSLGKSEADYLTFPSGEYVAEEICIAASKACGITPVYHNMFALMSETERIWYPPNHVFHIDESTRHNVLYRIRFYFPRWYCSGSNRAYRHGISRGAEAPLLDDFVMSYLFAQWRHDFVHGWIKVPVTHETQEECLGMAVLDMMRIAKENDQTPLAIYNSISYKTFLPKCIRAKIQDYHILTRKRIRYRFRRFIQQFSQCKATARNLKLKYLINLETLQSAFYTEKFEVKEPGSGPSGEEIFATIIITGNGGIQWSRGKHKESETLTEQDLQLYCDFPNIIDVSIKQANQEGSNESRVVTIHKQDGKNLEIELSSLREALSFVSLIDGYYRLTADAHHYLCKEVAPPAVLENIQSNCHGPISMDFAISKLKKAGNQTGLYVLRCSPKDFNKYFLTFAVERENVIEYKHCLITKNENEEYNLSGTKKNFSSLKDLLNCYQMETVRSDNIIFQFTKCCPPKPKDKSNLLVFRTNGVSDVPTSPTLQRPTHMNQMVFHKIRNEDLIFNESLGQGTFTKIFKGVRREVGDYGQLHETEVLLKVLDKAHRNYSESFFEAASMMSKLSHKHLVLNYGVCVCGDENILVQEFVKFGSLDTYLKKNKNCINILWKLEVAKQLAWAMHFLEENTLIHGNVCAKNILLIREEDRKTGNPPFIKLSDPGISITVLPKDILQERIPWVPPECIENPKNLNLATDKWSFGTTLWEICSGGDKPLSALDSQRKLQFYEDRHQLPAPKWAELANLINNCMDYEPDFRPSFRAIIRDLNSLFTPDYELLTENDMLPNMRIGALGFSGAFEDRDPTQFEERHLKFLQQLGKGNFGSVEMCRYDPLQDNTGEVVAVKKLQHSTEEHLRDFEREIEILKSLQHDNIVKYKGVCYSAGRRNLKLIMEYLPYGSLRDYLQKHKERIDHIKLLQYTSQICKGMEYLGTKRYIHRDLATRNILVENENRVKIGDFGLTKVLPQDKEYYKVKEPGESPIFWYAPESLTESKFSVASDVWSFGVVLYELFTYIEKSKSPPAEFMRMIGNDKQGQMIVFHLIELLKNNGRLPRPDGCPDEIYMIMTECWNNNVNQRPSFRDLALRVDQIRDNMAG

CC[C@H]1CN2CCc3cc(OC)c(OC)cc3[C@@H]2C[C@@H]1C[C@H]1NCCc2c1[nH]c1ccc(O)cc21 [tubulosine] was tested, and the IC50 (TYK2) was 0.0763 µM, the IC50 (JAK1) was 0.0695 µM and the Ki (JAK3 [1]) was 0.0129 ± 0.0013 µM. For the same molecule, the IC50 (JAK2) was 0.0849 µM.

Molecule Nc1ncnc2c1ncn2[C@@H]1O[C@H](COP(=O)(O)OP(=O)(O)OP(=O)(O)O)[C@@H](O)[C@H]1O [ATP] has a Km (JAK3 [2]) of 212 ± 25.7 µM.

CN[C@@H]1C[C@H]2O[C@@](C)([C@@H]1OC)n1c3ccccc3c3c4c(c5c6ccccc6n2c5c31)C(=O)NC4 [staurosporine] was tested, and the “KinaseProfiler kinase assay, positive control” value (JAK3 [3]) was “Staurosporine was used as a positive control for ATP‐competitive inhibition of JAKs”.

— paper PMC7339168 (Journal of Cellular and Molecular Medicine, 2020)
